pIC50: −log10 of the molar value.
Experiments:
[1] = molecular target: T1, ER (Homo sapiens, UniProt P03372); assay: Co-transfection assay, ER antagonist mode; type: cell-based
T1 construct: expressed in transfected cells; host or cells: CV-1 cells
Protocol: (§1) CV-1 cells (African green monkey kidney fibroblasts) were cultured in the presence of Dulbecco's Modified Eagle Medium (DMEM) supplemented with 10% charcoal resinstripped fetal bovine serum then transferred to 96-well microtiter plates one day prior to transfection.
(§2) Three to four replicates were used for each sample.
(§3) After 40 hours, the cells were washed with PBS, lysed with a Triton X-100-based buffer and assayed for LUC and β-Gal activities using a luminometer or spectrophotometer, respectively. For each replicate, the normalized response (NR) was calculated as: LUC response/β-Gal rate where β-Gal rate = β-Gal•1x10^-5/β-Gal incubation time.

[2] = molecular target: T2, GR (Homo sapiens, UniProt P04150); assay: cell-based
T2 sequence (P04150 1-777): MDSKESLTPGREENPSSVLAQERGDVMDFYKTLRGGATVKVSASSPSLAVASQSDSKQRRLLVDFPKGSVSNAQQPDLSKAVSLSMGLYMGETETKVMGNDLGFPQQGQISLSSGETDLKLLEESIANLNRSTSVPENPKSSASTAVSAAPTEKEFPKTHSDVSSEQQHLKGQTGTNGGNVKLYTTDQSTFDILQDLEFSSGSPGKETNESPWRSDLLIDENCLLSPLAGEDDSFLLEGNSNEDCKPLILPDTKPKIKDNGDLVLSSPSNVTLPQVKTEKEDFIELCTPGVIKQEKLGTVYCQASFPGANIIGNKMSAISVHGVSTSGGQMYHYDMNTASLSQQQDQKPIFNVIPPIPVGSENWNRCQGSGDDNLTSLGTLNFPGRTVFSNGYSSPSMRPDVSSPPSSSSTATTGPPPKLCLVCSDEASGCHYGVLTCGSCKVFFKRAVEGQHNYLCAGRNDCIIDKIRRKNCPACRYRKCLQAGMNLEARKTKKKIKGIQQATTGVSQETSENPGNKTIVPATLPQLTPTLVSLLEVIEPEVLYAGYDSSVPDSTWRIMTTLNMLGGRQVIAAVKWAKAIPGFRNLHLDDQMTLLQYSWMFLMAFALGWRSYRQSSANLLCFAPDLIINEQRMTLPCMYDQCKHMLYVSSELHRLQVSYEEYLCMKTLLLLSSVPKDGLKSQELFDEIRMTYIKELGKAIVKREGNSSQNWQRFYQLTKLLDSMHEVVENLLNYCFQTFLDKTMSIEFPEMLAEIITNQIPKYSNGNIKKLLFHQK
Protocol: as §1, §2, §3

[3] = molecular target: T3, MR (Homo sapiens, UniProt P08235); assay: Co-transfection assay, MR antagonist mode; type: cell-based
T3 construct: expressed in transfected cells; host or cells: CV-1 cells
T3 sequence (P08235 1-984): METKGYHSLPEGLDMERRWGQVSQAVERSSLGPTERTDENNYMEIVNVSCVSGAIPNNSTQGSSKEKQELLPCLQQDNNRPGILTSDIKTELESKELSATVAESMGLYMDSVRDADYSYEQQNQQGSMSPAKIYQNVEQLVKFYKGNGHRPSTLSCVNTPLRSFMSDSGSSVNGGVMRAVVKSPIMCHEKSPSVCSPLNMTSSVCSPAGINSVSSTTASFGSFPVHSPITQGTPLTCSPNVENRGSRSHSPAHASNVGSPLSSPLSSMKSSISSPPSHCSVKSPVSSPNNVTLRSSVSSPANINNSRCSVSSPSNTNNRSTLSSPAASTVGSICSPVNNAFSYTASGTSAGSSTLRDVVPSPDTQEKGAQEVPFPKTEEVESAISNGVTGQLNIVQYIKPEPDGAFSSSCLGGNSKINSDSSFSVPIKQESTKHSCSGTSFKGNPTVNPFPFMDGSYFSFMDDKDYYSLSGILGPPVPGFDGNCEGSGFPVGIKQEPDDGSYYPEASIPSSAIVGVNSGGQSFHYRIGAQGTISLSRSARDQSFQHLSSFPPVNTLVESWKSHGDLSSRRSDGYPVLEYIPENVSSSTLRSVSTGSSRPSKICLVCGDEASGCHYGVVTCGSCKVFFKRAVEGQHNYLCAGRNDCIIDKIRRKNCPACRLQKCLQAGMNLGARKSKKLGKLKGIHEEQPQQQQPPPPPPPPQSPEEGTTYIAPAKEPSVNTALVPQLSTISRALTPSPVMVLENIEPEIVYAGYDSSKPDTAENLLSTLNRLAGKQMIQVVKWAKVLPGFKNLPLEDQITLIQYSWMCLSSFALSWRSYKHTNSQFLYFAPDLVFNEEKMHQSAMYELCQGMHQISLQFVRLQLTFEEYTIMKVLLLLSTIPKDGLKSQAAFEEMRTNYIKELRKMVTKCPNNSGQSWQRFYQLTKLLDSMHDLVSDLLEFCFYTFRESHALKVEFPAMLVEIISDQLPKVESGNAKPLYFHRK
Protocol: as §1, §2, §3

[4] = molecular target: T4, PR (Homo sapiens, UniProt P06401); assay: cell-based
T4 sequence (P06401 1-933): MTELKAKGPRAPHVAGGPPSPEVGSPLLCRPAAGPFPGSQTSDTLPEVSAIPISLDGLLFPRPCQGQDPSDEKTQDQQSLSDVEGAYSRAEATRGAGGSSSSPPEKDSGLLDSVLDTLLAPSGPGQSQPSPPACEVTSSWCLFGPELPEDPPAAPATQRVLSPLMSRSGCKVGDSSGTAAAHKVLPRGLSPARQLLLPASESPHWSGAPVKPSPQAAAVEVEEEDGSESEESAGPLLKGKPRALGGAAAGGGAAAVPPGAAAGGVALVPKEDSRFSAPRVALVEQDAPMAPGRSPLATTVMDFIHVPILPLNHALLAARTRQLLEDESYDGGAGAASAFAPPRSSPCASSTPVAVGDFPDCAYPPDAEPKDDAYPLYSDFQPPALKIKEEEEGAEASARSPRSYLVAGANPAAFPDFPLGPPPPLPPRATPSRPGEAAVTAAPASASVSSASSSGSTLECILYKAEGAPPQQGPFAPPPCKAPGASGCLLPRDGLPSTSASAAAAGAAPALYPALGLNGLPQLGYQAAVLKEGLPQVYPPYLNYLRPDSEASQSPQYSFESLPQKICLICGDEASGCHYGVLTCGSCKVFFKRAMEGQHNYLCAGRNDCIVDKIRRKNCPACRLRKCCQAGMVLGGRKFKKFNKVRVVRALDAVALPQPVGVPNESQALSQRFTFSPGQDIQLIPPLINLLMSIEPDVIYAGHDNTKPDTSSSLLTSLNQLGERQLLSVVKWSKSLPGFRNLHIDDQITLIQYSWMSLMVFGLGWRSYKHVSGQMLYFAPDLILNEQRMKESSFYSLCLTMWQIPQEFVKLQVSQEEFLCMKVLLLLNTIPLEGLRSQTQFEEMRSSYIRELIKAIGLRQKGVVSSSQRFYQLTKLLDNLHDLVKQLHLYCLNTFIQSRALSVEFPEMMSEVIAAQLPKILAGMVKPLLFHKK

Measured: pIC50

T1 sequence (P03372 whole entry): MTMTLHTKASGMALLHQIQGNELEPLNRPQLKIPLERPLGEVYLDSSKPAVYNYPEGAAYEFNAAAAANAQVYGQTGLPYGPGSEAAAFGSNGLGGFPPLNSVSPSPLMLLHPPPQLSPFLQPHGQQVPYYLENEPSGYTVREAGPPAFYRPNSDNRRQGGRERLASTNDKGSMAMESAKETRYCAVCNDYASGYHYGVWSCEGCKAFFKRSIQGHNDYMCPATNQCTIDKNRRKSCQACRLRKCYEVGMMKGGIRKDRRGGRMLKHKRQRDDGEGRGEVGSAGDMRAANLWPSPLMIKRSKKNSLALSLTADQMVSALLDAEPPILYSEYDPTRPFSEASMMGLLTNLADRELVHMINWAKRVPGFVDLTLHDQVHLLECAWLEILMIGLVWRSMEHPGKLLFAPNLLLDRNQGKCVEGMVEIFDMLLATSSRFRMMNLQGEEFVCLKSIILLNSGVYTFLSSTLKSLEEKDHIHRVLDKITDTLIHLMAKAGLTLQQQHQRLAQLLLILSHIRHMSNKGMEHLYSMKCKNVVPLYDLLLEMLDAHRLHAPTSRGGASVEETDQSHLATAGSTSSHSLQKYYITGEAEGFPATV

CC12CCCN1c1cc3nc(O)cc(C(F)(F)F)c3cc1CC2 (racemic) [Compound 101, (R/S)-6,7,7a,11-Tetrahydro-7a-methyl-4-trifluoromethyl-2-pyridono[5,6-g]pyrrolidino[1,2-a]quinoline]
< 5.00: all assays above

CC12CCCN1c1cc3[nH]c(=O)c(F)c(C(F)(F)F)c3cc1CC2 (racemic) [Compound 102, (R/S)-3-Fluoro-6,7,7a,11-tetrahydro-7a-methyl-4-trifluoromethyl-2-pyridono[5,6-g]pyrrolidino[1,2-a]quinoline]
< 5.00: [1] | [2] | [3]

From patent publication EP0918774B9, “ANDROGEN RECEPTOR MODULATOR COMPOUNDS AND METHODS” (LIGAND PHARMACEUTICALS INCORPORATED, priority 1996, dated 1997)
